Results published in US12612412B2, “Antiviral heterocyclic compounds” (Enanta Pharmaceuticals, Inc., priority 2021, dated 2026).
Where two headings read alike, the source gives them in different places.

What was measured:
[1] = tested on: genotype A, "Long" strain RSV; assay: RSV-A assay (CPE protection in Hep-2 cells, ATPlite readout); format: cell-based, Human respiratory syncytial virus (HRSV); settings: human respiratory syncytial virus, MOI 0.1, CPE protection
Outline: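 Hep-2 cells (8,000/well) infected with RSV Long strain at MOI 0.1 in the presence of 2-fold compound dilutions in duplicate. After 5 days, cell viability measured by ATPlite luminescence, normalized between virus-only and uninfected cell controls; EC50 reported.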

[2] = tested on: HMPV clinical isolate TN/1501/A1; assay: HMPV antiviral assay Method-B (clinical isolate TN/1501/A1 in LLC-MK2 cells, ATP-Lite readout); format: cell-based, Human metapneumovirus (HMPV); settings: human metapneumovirus, LLC-MK2, 144 h, hMPV WT1501 (clinical isolate TN/1501/A1), 6 days
Outline: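 EC50 derived by four-parameter logistic fit of percent cell health, measured by ATP-Lite luminescence and normalised to virus-only and uninfected-cell controls. Compounds run in duplicate from 10 μM top, 3-fold, 10 points. Infection: LLC-MK2 cells, MOI 0.014, 2 μg/mL final TPCK-trypsin, serum-free, 6 days at 37° C.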

[3] = RSV-A Long strain, read-out: Human RSV-A (“Long”) EC50
[4] = genotype A “Long” strain RSV, read-out: Human RSV-A (“Long”)

SMILES	EC50 [1, 3] [nM]	EC50 [2] [nM]	EC50 [1, 4] [nM]
C[C@]1(C(N)=O)COc2c1cc([C@@](O)(CNC(=O)c1ccc3nn(C4CC4)cc3c1)C1CC1)nc2-c1cc(Br)c(F)cc1F [Example 1095]	< 200	< 500	–
Cc1cnc2c(OC(F)F)cc(C(=O)NC[C@](O)(c3cc4c(c(-c5ccc(F)cc5)n3)OC[C@@]4(C(N)=O)C(F)F)C(F)(F)F)cc2c1 [Example 1007]	< 200	< 500	–
COc1cc(C(=O)NC[C@](O)(c2cc3c(c(-c4cc(Cl)ccc4F)n2)OC[C@]3(C)C(N)=O)C2CC2)cc2cn(C(F)F)nc12 [Example 1188]	< 200	< 500	–
COc1cc(C(=O)NC[C@](O)(c2cc3c(c(-c4cc(F)c(F)cc4F)n2)OC[C@]3(C)C(N)=O)C2CC2)cc2cn(C3(F)CC3)nc12 [Example 1147]	< 200	< 500	–
C[C@]1(C(N)=O)COc2c1cc([C@@](O)(CNC(=O)c1cc(Cl)c3nn(C4CC4)cc3c1)C1(F)CC1)nc2-c1ccc(F)cc1 [Example 755]	–	< 500	< 200
COc1cc(C(=O)NC[C@@](O)(c2cc3c(c(-c4c(F)cccc4F)n2)OC[C@]3(C)C(N)=O)C(F)(F)F)cc2cn(C3CC3)nc12 [Example 1232]	> 200	> 500	–
COc1cc(C(=O)NC[C@](O)(c2cc3c(c(-c4csc5c(F)cccc45)n2)OC[C@]3(C)C(N)=O)C(F)(F)F)cc2cn(C3CC3)nc12 [Example 936]	< 200	< 500	–
COc1cc(C(=O)NC[C@](O)(c2cc3c(c(-c4cnc(Cl)c(Cl)c4)n2)OC[C@]3(C)C(N)=O)C(F)(F)F)cc2cn(C3CC3)nc12 [Example 587]	–	> 500	< 200
COc1cc(C(=O)NC[C@](O)(c2cc3c(c(-c4c(F)ccc(Cl)c4F)n2)OC[C@]3(C)C(N)=O)C2CC2)cc2cc(Br)c(C)nc12 [Example 1169]	< 200	< 500	–
Cc1cnc2c(OC(F)F)cc(C(=O)NC[C@](O)(c3cc4c(c(-c5ccc(F)c(F)c5Cl)n3)OC[C@]4(C)C(N)=O)C3CC3)cc2c1 [Example 566]	–	< 500	< 200
COc1cc(C(=O)NC[C@](O)(c2cc3c(c(-c4ccc5c(c4)OC(F)(F)O5)n2)OC[C@@]3(C(N)=O)C(F)F)C2CC2)cc2cn(C(F)F)nc12 [Example 1044]	< 200	< 500	–
COc1cc(C(=O)NC[C@](O)(c2cc3c(c(-c4ccc(F)c(Cl)c4)n2)OC[C@@]3(CF)C(N)=O)C(F)(F)F)cc2cn(C3CC3)nc12 [Example 1051]	< 200	> 500	–
COc1cc(C(=O)NC[C@](O)(c2cc3c(c(-c4ccc5c(c4)OC(F)(F)O5)n2)OC[C@]3(C)C(N)=O)C(F)(F)F)cc2sc(C)nc12 [Example 505]	–	< 500	< 200
COc1cc(C(=O)NC[C@](O)(c2cc3c(c(-c4cccc(F)c4Cl)n2)OC[C@]3(C)C(N)=O)C(F)(F)F)cc2cn(C3CC3)nc12 [Example 761]	–	< 500	< 200
Cc1nn(-c2ccccc2)cc1C(=O)NC[C@](O)(c1cc2c(c(-c3ccc(F)cc3)n1)OC[C@]2(C)C(N)=O)C1CC1 [Example 486]	–	> 500	< 200
COc1cc(C(=O)NC[C@](O)(c2cc3c(c(-c4ccc5c(c4)OC(F)(F)O5)n2)OC[C@]3(C)C(N)=O)C2CC2)cc2cc(C)c(Cl)nc12 [Example 1074]	< 200	< 500	–
COc1cc(C(=O)NC[C@](O)(c2cc3c(c(-c4cccc(F)c4Cl)n2)OC[C@]3(C)C(N)=O)C(F)(F)F)cc2cn(C(F)F)nc12 [Example 1120]	< 200	< 500	–
COc1cc(C(=O)NC[C@](O)(c2cc3c(c(-c4ccc(F)c(F)c4)n2)OC[C@]3(C)C(N)=O)C2CC2)cc2cn(C3CC3)nc12 [Example 534]	–	< 500	< 200
C[C@]1(C(N)=O)COc2c1cc([C@@](O)(CNC(=O)c1cc(F)c3nc(N)sc3c1)C1CC1)nc2-c1ccc2c(c1)OC(F)(F)O2 [Example 827]	< 200	< 500	–
COc1cc(C(=O)NC[C@](O)(c2cc3c(c(-c4ccc(F)cc4Cl)n2)OC[C@]3(C)C(N)=O)C2CC2)cc2cn(C3(F)CC3)nc12 [Example 652]	–	< 500	< 200
COc1cc(C(=O)NC[C@](O)(c2cc3c(c(-c4ccc(F)c(C(F)(F)F)c4)n2)OC[C@]3(C)C(N)=O)C2(F)CC2)cc2cn(C(F)F)nc12 [Example 751]	–	< 500	< 200
COc1cc(C(=O)NC[C@](O)(c2cc3c(c(-c4cccc(F)c4Cl)n2)OC[C@]3(C)C(N)=O)C2CC2)cc2cc(Br)c(C)nc12 [Example 1126]	< 200	< 500	–
COc1cc(C(=O)NC[C@@](O)(c2cc3c(c(-c4ccc(F)c(Br)c4F)n2)OC[C@]3(C)C(N)=O)C(F)(F)F)cc2cn(C3CC3)nc12 [Example 955]	< 200	> 500	–

SMILES	EC50 [1, 3] [nM]	EC50 [2] [nM]	EC50 [1, 4] [nM]
COc1cc(C(=O)NC[C@](O)(c2cc3c(c(-c4ccc(F)c(Cl)c4)n2)OC[C@]3(C(N)=O)C(F)F)C2CC2)cc2cn(C3CC3)nc12 [Example 1024]	> 200	> 500	–
COc1cc(C(=O)NC[C@](O)(c2cc3c(c(-c4ccc(F)cc4F)n2)OC[C@]3(C)C(N)=O)C(F)(F)F)cc2cn(C3CC3)nc12 [Example 901]	< 200	< 500	–
COc1cc(C(=O)NC[C@](O)(c2cc3c(c(-c4cc(Cl)c(F)cc4F)n2)OC[C@]3(C)C(N)=O)C2CC2)cc2cn(C3CC3)nc12 [Example 661]	–	< 500	< 200
COc1cc(C(=O)NC[C@](O)(c2cc3c(c(-c4ccc(F)c(Cl)c4)n2)OC[C@@]3(C(N)=O)C(F)F)C(F)(F)F)cc2sc(C3CC3)nc12 [Example 1017]	< 200	< 500	–
COc1cc(C(=O)NC[C@](O)(c2cc3c(c(-c4ccc(Cl)c(F)c4F)n2)OC[C@]3(C)C(N)=O)C2CC2)cc2cn(C3CC3)nc12 [Example 683]	–	< 500	< 200
Cc1cnc2c(Cl)cc(C(=O)NC[C@](O)(c3cc4c(c(-c5cc(F)c(Cl)cc5F)n3)OC[C@]4(C)C(N)=O)C3CC3)cc2c1 [Example 1181]	< 200	< 500	–
COc1cc(C(=O)NC[C@](O)(c2cc3c(c(-c4ccc5c(c4)OC(F)(F)O5)n2)OC[C@]3(C)C(N)=O)C2CC2)cc2cc(Br)cnc12 [Example 543]	–	< 500	< 200
COc1cc(C(=O)NC[C@](O)(c2cc3c(c(-c4ccc(F)c(F)c4F)n2)OC[C@]3(C)C(N)=O)C(F)(F)F)cc2cc(Cl)c(C)nc12 [Example 506]	–	< 500	< 200
C[C@]1(C(N)=O)COc2c1cc([C@@](O)(CNC(=O)c1ccc3nn(C4CC4)cc3c1)C(F)(F)F)nc2-c1cc(F)c(F)cc1F [Example 1139]	< 200	< 500	–
Cc1cnc2c(Cl)cc(C(=O)NC[C@](O)(c3cc4c(c(-c5ccc(F)c(F)c5F)n3)OC[C@]4(C)C(N)=O)C(F)(F)F)cc2c1 [Example 513]	–	< 500	< 200
Cc1cnc2c(OC(F)F)cc(C(=O)NC[C@](O)(c3cc4c(c(-c5ccc(F)c(Cl)c5)n3)OC[C@]4(C(N)=O)C(F)F)C3CC3)cc2c1 [Example 1028]	> 200	> 500	–
C[C@]1(C(N)=O)COc2c1cc([C@@](O)(CNC(=O)c1cc(Cl)c3nn(C4CC4)cc3c1)C1CC1)nc2-c1ccc(Cl)c(F)c1F [Example 686]	–	< 500	< 200
COc1cc(C(=O)NC[C@](O)(c2cc3c(c(-c4ccc(F)c(C)c4)n2)OC[C@]3(C)C(N)=O)C(F)(F)F)cc2cn(C3CC3)nc12 [Example 636]	–	< 500	< 200
COc1cc(C(=O)NC[C@](O)(c2cc3c(c(-c4ccc(F)cc4)n2)OC[C@]3(C)C(N)=O)C(F)(F)F)cc2cc(C(F)F)nnc12 [Example 1069]	< 200	> 500	–
COc1cc(C(=O)NC[C@](O)(c2cc3c(c(-c4ccc(F)c(Cl)c4)n2)OC[C@@]3(C(N)=O)C(F)F)C2CC2)cc2cn(C3CC3)nc12 [Example 1025]	< 200	< 500	–
COc1cc(C(=O)NCC(O)(c2cc3c(c(-c4ccc(F)c(OC(F)F)c4)n2)OC[C@]3(C)C(N)=O)C(F)(F)F)cc2cn(C3CC3)nc12 (stereo partly drawn) [Example 909]	< 200	> 500	–
Cc1cnc2c(OC(F)F)cc(C(=O)NC[C@](O)(c3cc4c(c(-c5ccc(F)cc5Cl)n3)OC[C@]4(C)C(N)=O)C3(F)CC3)cc2c1 [Example 733]	–	< 500	< 200
Cc1cnc2c(OC(F)F)cc(C(=O)NC[C@](O)(c3cc4c(c(-c5ccc(F)c(Cl)c5)n3)OC[C@]4(C)C(N)=O)C(F)(F)F)cc2c1 [Example 494]	–	< 500	< 200
COc1cc(C(=O)NC[C@](O)(c2cc3c(c(-c4ccc(F)c(C(F)(F)F)c4)n2)OC[C@]3(C)C(N)=O)C2CC2)cc2cc(Cl)c(C)nc12 [Example 1103]	< 200	< 500	–
COc1cc(C(=O)NC[C@](O)(c2cc3c(c(-c4ccc(F)c(F)c4Cl)n2)OC[C@]3(C)C(N)=O)C2CC2)cc2cc(Br)c(C)nc12 [Example 1184]	< 200	< 500	–
COc1ccc(C(=O)NC[C@](O)(c2cc3c(c(-c4ccc(F)cc4)n2)OC[C@]3(C)C(N)=O)C(F)(F)F)cc1NC(=O)NC1CC1 [Example 625]	–	> 500	< 200
COc1cc(C(=O)NC[C@](O)(c2cc3c(c(-c4cc(F)c(Cl)cc4F)n2)OC[C@]3(C)C(N)=O)C2CC2)cc2cn(C3CC3)nc12 [Example 1177]	< 200	< 500	–
